Measurements taken from patent US8629164B2, “Inhibitors of NF-κB” (Profectus Biosciences, Inc., priority 2009, dated 2014).

Legend:
RelA/p65 = test: Immunostaining of RelA/p65 nuclear translocation in Hek293 cells; type: cell-based; conditions: TNFα 20 ng/ml, 30 minutes
Description: (§1) Specifically, the compound of Example 1 causes the accumulation of activated RelA/p65 in the cytoplasm of cells. Hek293 cells were treated with DHMEQ or the compound of Example 1 (as indicated) with TNFα (20 ng/ml) for 30 minutes. After incubation, the cells were immunostained with anti-p65 antibody (C-20) antibody (Santa Cruz Biotechnology, Santa Cruz, Calif.) and nuclei were counterstained with Dapi. Images were captured using an AE31 inverted microscope with epifluorescence illuminator (Motic, Xiamen, China) and a ProgRes C3 camera (JENOPTIK, Jena, Germany). Individual images of p65 and corresponding nuclei were merged for final figure. Control treated cells (DMSO only) show nuclear accumulation of p65 upon TNFα stimulation.
as §1, with “Immunostaining of RelA/p65. The” for “Specifically, the”, “incubation,” for “incubation, the”, “figure.” for “figure. Control treated cells (DMSO only) show nuclear accumulation of p65 upon TNFα stimulation.”

RelB = target: T1, RelB (Homo sapiens, UniProt Q01201); test: TransAM NF-κB Family DNA Binding ELISA, RelB; conditions: RelB binding to DNA IC50, FIG. 8, non-canonical pathway
T1 sequence (Q01201 1-579): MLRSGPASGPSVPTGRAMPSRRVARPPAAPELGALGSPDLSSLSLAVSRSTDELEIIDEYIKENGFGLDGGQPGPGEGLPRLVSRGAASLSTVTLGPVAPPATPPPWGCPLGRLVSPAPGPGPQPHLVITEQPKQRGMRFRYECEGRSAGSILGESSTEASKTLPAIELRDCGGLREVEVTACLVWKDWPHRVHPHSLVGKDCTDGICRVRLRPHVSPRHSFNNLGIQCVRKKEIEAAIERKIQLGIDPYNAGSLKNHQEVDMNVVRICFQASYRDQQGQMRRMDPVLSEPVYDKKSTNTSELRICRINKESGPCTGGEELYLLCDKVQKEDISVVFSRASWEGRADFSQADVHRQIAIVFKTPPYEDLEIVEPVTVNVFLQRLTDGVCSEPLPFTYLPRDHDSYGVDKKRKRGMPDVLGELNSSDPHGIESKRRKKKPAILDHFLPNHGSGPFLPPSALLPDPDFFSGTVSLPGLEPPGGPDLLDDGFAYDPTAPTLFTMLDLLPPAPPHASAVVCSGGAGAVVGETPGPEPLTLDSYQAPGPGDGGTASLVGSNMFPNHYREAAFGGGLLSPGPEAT
T1 sequence (Q00653 1-454 partner limits assumed): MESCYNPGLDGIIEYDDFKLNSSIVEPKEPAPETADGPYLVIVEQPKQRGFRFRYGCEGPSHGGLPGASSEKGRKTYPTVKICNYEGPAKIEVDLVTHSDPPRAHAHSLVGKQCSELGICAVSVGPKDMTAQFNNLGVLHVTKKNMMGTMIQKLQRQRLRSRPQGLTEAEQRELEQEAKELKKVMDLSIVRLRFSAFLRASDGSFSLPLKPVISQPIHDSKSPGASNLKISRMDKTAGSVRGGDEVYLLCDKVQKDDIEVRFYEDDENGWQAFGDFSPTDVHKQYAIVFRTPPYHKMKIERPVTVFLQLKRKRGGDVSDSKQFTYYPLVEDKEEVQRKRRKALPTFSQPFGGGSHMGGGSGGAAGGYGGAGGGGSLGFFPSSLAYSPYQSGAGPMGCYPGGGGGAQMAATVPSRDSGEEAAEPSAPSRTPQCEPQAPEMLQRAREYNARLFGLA

[1] = system: human peripheral blood mononuclear cells (hPBMCs); test: Cytotoxicity to hPBMCs (CellTiter-Glo); type: cell-based; conditions: hPBMCs, at 40 μM
Description: Human peripheral blood mononuclear cells (hPBMCs) were treated with example 1 or DHMEQ and the percentage of viable cells was assessed 24 hours post drug treatment. The graph represents the mean±the standard deviation of three replicate experiments.
The cytotoxicity profile of the compound of Example 1. The cytotoxicity of the compound of Example 1 was determined for human peripheral blood mononuclear cells (hPBMCs). As with the activity assay, the hPBMCs were treated with 0, 0.2, 1, 10, 20 and 40 μM of the compound of Example 1 for 2 hours, and then induced with 20 ng/ml TNF-α for 48 hours. The number of viable cells was determined using CellTiter-Glo luminescent cell viability assay (Promega (cat #G7573)). […] The selectivity index (the ratio of cytotoxicity CC50 to inhibitory IC50) is assigned to the compound of Example 1.

Compound: O=C(NC1=CC(=O)C2OC2C1O)c1ccccc1O (stereo not drawn) [DHMEQ, dehydroxymethylepoxyquinomicin, reference compound]
- concentration at which TNFα induced nuclear accumulation of p65 was significantly blocked (RelA/p65): higher concentration
- IC50 (RelB): > 20 µM
- inhibition of cell growth [1]: greater than 60%
